For test [1], the target named is T1, Carbonic anhydrase (Candida glabrata CBS 138, UniProt Q6FTL6).
T1 sequence (Q6FTL6 whole entry): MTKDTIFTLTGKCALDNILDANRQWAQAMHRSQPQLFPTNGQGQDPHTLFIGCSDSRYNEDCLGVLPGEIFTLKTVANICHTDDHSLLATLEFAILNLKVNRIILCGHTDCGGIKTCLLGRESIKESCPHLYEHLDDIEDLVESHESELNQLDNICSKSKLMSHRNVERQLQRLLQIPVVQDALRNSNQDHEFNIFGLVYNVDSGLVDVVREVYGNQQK
Also noted: species or system Nakaseomyces glabratus.

In test [2] the target is T2, Carbonic anhydrase (Candida albicans (strain SC5314 / ATCC MYA-2876) (Yeast), UniProt Q5AJ71).
T2 sequence (Q5AJ71 whole entry): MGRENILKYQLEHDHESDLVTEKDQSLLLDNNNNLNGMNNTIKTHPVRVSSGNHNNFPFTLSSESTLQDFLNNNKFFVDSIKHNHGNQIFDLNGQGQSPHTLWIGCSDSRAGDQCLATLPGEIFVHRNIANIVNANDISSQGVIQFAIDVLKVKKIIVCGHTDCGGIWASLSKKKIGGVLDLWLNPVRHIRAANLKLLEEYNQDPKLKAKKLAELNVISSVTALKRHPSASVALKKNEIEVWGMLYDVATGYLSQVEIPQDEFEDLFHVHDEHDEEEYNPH

The nature of test [3]: Selectivity ratio of Ki for human carbonic anhydrase-2 to Ki for recombinant full length Candida glabrata NCE103.
The target of test [4] is Carbonic anhydrase 2 (Homo sapiens, UniProt P00918). Nature of the test: Inhibition of human carbonic anhydrase-2 preincubated for 15 mins by stopped-flow CO2 hydrase assay.

What is called Ki is a measure of affinity in units of concentration, obtained from inhibition or displacement. With `NCc1ccc(S(N)(=O)=O)cc1` [MAFENIDE], the Ki in test [1] (read-out: Ki) was 865 nM. Same read-out and setting: as for `Cc1onc(-c2ccccc2)c1-c1ccc(S(N)(=O)=O)cc1` [VALDECOXIB], the figure is 97 nM.

For `CC1(C)O[C@@H]2[C@@H](CO[C@@]3(COS(N)(=O)=O)OC(C)(C)O[C@@H]23)O1` [TOPIRAMATE], the Ki in test [1] (read-out: Ki) came out at 110 nM.

On to `NS(=O)(=O)Oc1ccc(NC(=O)Nc2ccc([N+](=O)[O-])cc2)cc1`, for which the results for the Ki in test [2] and in test [1] (read-out: Ki) were 106 nM and 6.4 nM, respectively.

`Nc1cc(Cl)c(S(N)(=O)=O)cc1S(N)(=O)=O`: the Ki in test [1] (read-out: Ki) turned out to be 86 nM. As for `NS(=O)(=O)Nc1ccc(NC(=O)Nc2ccc(Cl)cc2)cc1`, the Ratio Ki in test [3] amounted to 57. The results for the Ki in test [2] and in test [1] (read-out: Ki) were 102 nM and 5.5 nM, respectively. Regarding `Cc1ccc(-c2cc(C(F)(F)F)nn2-c2ccc(S(N)(=O)=O)cc2)cc1` [CELECOXIB], the Ki in test [1] (read-out: Ki) came out at 116 nM. As for `CCN[C@H]1CN(CCCOC)S(=O)(=O)c2sc(S(N)(=O)=O)cc21` [BRINZOLAMIDE], the Ki in test [1] (read-out: Ki) turned out to be 4350 nM.

As for `NS(=O)(=O)c1ccc(NC(=O)Nc2ccccc2)cc1`, the Ki in test [1] (read-out: Ki) amounted to 73 nM.

For `Nc1ccc(S(N)(=O)=O)cc1I`, the Ki in test [1] was found to be 128 nM.

Take `NCCc1ccc(S(N)(=O)=O)cc1`: in test [1] (read-out: Ki), the inhibition constant (Ki) is 550 nM. For `Nc1ccc(S(N)(=O)=O)cc1Cl`, the Ki in test [1] (read-out: Ki) was determined as 97 nM.

Turning to `NS(=O)(=O)Nc1ccc(NC(=O)NCc2ccco2)cc1`, the Ki in test [2] was found to be 58 nM; in test [1] (read-out: Ki), 24.1 nM. For `CCOc1ccc2nc(S(N)(=O)=O)sc2c1` [ETHOXZOLAMIDE], the Ki in test [1] (read-out: Ki) was found to be 3130 nM.

In the case of `Nc1ccc(S(N)(=O)=O)cc1Br`, the inhibitory constant (Ki) in test [1] (read-out: Ki) was 109 nM. For `NS(=O)(=O)Oc1ccc(NC(=O)Nc2ccccc2)cc1`, the Ki in test [1] (read-out: Ki) came out at 9.6 nM. Take `Nc1cc(C(F)(F)F)c(S(N)(=O)=O)cc1S(N)(=O)=O`: in test [1] (read-out: Ki), the Ki was found to be 97 nM. The same measure, in the same setting: to `Cn1nc(S(N)(=O)=O)sc1=N` belongs 786 nM. `NS(=O)(=O)Nc1ccc(NC(=O)NC2CCCCC2)cc1`: the Ki in test [2] was found to be 134 nM; in test [1] (read-out: Ki), 80.1 nM.

As for `Nc1ccc(S(=O)(=O)NCCc2ccc(S(N)(=O)=O)cc2)cc1`, the Ki in test [1] (read-out: Ki) worked out at 98 nM. The same measure, in the same setting: as for `NS(=O)(=O)c1ccc(NC(=O)Nc2ccc(Cl)cc2)cc1`, the figure is 7 nM.

Regarding `NS(=O)(=O)Nc1ccc(NC(=O)Nc2cccc([N+](=O)[O-])c2)cc1`, the figures for the Ki in test [2] and in test [1] (read-out: Ki) were 109 nM and 4.1 nM, respectively. For the compound `NS(=O)(=O)Oc1ccc(NC(=O)Nc2ccc(Cl)cc2)cc1`, the Ki in test [2] amounted to 505 nM; in test [1] (read-out: Ki), 9.4 nM. `NS(=O)(=O)c1ccc(C(=O)O)cc1` [CARZENIDE]: the Ki in test [1] (read-out: Ki) amounted to 53 nM. Consider `NS(=O)(=O)Nc1ccc(NC(=O)NCc2ccccc2)cc1`, for which the Ki came out at 146 nM in test [2] and 24.3 nM in test [1] (read-out: Ki). With `Nc1ccc(S(=O)(=O)Nc2nnc(S(N)(=O)=O)s2)cc1`, the Ki in test [1] (read-out: Ki) was found to be 106 nM. Take `NS(=O)(=O)Nc1ccc(NC(=O)NCCc2ccccc2)cc1`: the inhibition constant (Ki) was 130 nM in test [2] and 15.1 nM in test [1] (read-out: Ki). Taken in the same sequence, the figures for `CC(C)c1ccccc1NC(=O)Nc1ccc(NS(N)(=O)=O)cc1` were 55 nM and 33.8 nM. Take `NS(=O)(=O)c1ccc(CO)cc1`: the Ki in test [1] (read-out: Ki) stood at 61 nM. Same read-out and setting: as for `NS(=O)(=O)c1nnc(-c2ccccc2Cl)s1`, the figure is 420 nM.

For the compound `N#Cc1ccccc1NC(=O)Nc1ccc(OS(N)(=O)=O)cc1`, the Ki was 156 nM in test [2] and 89 nM in test [1] (read-out: Ki).

Take `NS(=O)(=O)Nc1ccc(NC(=O)Nc2ccccc2-c2ccccc2)cc1`: the Ki in test [2] was 72 nM; in test [1] (read-out: Ki), 6.7 nM. Turning to `NS(=O)(=O)c1ccc(NC(=O)Nc2cccc([N+](=O)[O-])c2)cc1`, the Ki in test [1] (read-out: Ki) stood at 6.1 nM. As for `NS(=O)(=O)Oc1ccc(NC(=O)Nc2c(F)cc(F)cc2Br)cc1`, the Ki in test [2] amounted to 84 nM; in test [1] (read-out: Ki) it was 5 nM. Regarding `NS(=O)(=O)c1ccc(NC(=O)Nc2ccc(Br)cc2)cc1`, the Ki in test [1] (read-out: Ki) is 5.4 nM. On to `Nc1ccc(S(N)(=O)=O)cc1` [SULFANILAMIDE], for which the Ki in test [1] (read-out: Ki) stood at 8010 nM. Turning to `Nc1ccc(S(=O)(=O)NCc2ccc(S(N)(=O)=O)cc2)cc1`, in test [1] (read-out: Ki), the Ki turned out to be 108 nM. The same measure, in the same setting: to `Nc1ccc(S(N)(=O)=O)cc1F` belongs 98 nM. Consider `NS(=O)(=O)Oc1ccc(NC(=O)Nc2ccc3c(c2)Cc2ccccc2-3)cc1`, for which the Ki in test [2] is 76 nM; in test [1] (read-out: Ki), 115 nM.

With `NS(=O)(=O)Oc1ccc(NC(=O)Nc2cccc(Cl)c2)cc1`, the Ki in test [2] came to 124 nM; in test [1] (read-out: Ki) it was 89 nM. On to `NS(=O)(=O)c1ccc(CCO)cc1`, for which the Ki in test [1] (read-out: Ki) was 48 nM.

As for `NS(=O)(=O)Oc1ccc(NC(=O)Nc2cccc3ccccc23)cc1`, the values for the Ki in test [2] and in test [1] (read-out: Ki) were 1430 nM and 89 nM, respectively. Taken in the same sequence, the figures for `CCCCOc1ccc(NC(=O)Nc2ccc(NS(N)(=O)=O)cc2)cc1` were 135 nM and 13.9 nM. Taken in the same sequence, the figures for `Cc1cc(C)cc(NC(=O)Nc2ccc(NS(N)(=O)=O)cc2)c1` were 139 nM and 8.5 nM. Regarding `Nc1nccc(Nc2ccc(S(N)(=O)=O)cc2)n1`, the Ki in test [1] (read-out: Ki) came to 83 nM. Still for that read-out and setting: as for `NS(=O)(=O)c1ccc(S(=O)(=O)Nc2cccc3c(Cl)c[nH]c23)cc1`, the figure is 94 nM. On to `NS(=O)(=O)Oc1ccc(NC(=O)NCc2ccccc2)cc1`, for which the Ki came out at 137 nM in test [2], 8.4 nM in test [1] (read-out: Ki) and 274 nM in test [4]. Consider `NS(=O)(=O)Oc1ccc(NC(=O)Nc2ccc(C(F)(F)F)c(C(F)(F)F)c2C(F)(F)F)cc1`, for which the figures for the Ki in test [2] and in test [1] (read-out: Ki) were 76 nM and 5.8 nM, respectively. In the case of `Nc1nnc(S(N)(=O)=O)s1`, the Ki in test [1] (read-out: Ki) amounted to 95 nM. Consider `NS(=O)(=O)Oc1ccc(NC(=O)NCCc2ccccc2)cc1`, for which the Ki in test [2] is 133 nM; in test [1] (read-out: Ki) it was 7.5 nM. Regarding `Cc1ccc(S(N)(=O)=O)cc1` [P-TOLUENESULFONAMIDE], the Ki in test [1] (read-out: Ki) worked out at 846 nM. Turning to `NS(=O)(=O)c1ccc(NC(=O)NCc2ccccc2)cc1`, the Ki in test [1] (read-out: Ki) is 81 nM. Same read-out and setting: as for `NS(=O)(=O)c1nnc(NS(=O)(=O)c2ccccc2)s1` [BENZOLAMIDE], the figure is 952 nM. As to `NS(=O)(=O)c1ccc(NC(=O)NCCc2ccccc2)cc1`, the Ki was found to be 124 nM in test [2], 56 nM in test [1] (read-out: Ki) and 660 nM in test [4].

For the origin of these results see ChEMBL document CHEMBL2375327, “Carbonic anhydrase inhibitors: inhibition of the β-class enzyme from the pathogenic yeast Candida glabrata with sulfonamides, sulfamates and sulfamides” (Bioorg Med Chem Lett, 2013).
